Reference: patent US10463666B2, “Pharmaceutical composition comprising progestogens and/or estrogens and 5-methyl-(6S)-tetrahydrofolate” (MERCK & CIE, priority 2005, dated 2019)

Tests used:
[1] = compatibility investigation of binary mixtures with vitamin B12 by DSC; format: physicochemical; set-up: key: ++: good compatibility expected below the stated temperature; +: compatibility below the stated temperature; ++/−: indifferent compatibility, possibly good compatibility below the stated temperature; +/−−: indifferent compatibility, appears to be compatible below the stated temperature; −: (strong) interaction, incompatible; −−−: (strong) interaction, incompatible; conditions: binary mixture with vitamin B12, DSC, various gases and temperatures
Procedure: Both vitamin B12 and 5-methyl-(6S)-tetrahydrofolate are unstable in the presence of atmospheric oxygen and humidity. […] Measurements of the incompatibilities between the intended formulation ingredients were carried out by a thermoanalytical method (DSC, differential scanning calorimetry). This allows incompatibilities to be recognized through low enthalpies of fusion and melting temperatures. These are caused for example by a reduced proportion of crystalline substance and the increase in impurities. In the determination, binary mixtures of excipients or active ingredients in each case with vitamin B12 were investigated, and the compatibility was examined under the influence of various gases and temperatures. […]

[2] = cited from earlier work

| Compatibility [1] | Compound | reduction of incidence of neural tube defects ([2]; folic acid fortification of food products, Canada and Chile) | reduction of neural tube defects ([2]; intake at the right time around conception) |
| --- | --- | --- | --- |
| + | C[C@]12CCC(=O)C=C1[C@@H]1C[C@@H]1[C@H]1[C@@H]3[C@@H]4C[C@@H]4[C@@]4(CCC(=O)O4)[C@@]3(C)CC[C@@H]12 [Drospirenone] | – | – |
| + | OC[C@H]1O[C@@H](O[C@H]2[C@H](O)[C@@H](O)C(O)O[C@@H]2CO)[C@H](O)[C@@H](O)[C@H]1O (some centres unmarked) [Lactose] | – | – |
| – | Nc1nc2ncc(CNc3ccc(C(=O)N[C@@H](CCC(=O)O)C(=O)O)cc3)nc2c(=O)[nH]1 [folic acid] | more than 50% | 50-70% |

| Compound | Compatibility [1] | reduction of incidence of neural tube defects ([2]; folic acid fortification of food products, Canada and Chile) | reduction of neural tube defects ([2]; intake at the right time around conception) |
| --- | --- | --- | --- |
| Magnesium stearate | ++/− | – | – |
